Test [1] has as its system influenza virus A/PR/8/34-GFP. In kind it is cell-based.
Test [2] has as its system IAV. In kind it is cell-based, influenza A virus.
Test [3] relates to influenza virus (A/PR/8/34-GFP). In kind it is cell-based.

As to `O=C(/C=C/c1ccc(O)c(O)c1)O[C@@H]1C[C@](O)(C(=O)O)C[C@@H](O)[C@H]1O` [chlorogenic acid], the “level of GFP compared with untreated cells” value in test [1] is given as “lower”. For the same molecule, the “levels of IAV proteins compared with untreated cells” value in test [2] is reported as “suppressed”.
The matching figures for `CC(C)=CCC[C@](C)(O[C@@H]1O[C@H](CO)[C@@H](O)[C@H](O)[C@H]1O)[C@H]1CC[C@]2(C)[C@@H]1[C@H](O)C[C@@H]1[C@@]3(C)CC[C@H](O[C@@H]4O[C@H](CO)[C@@H](O)[C@H](O)[C@H]4O[C@@H]4O[C@H](CO)[C@@H](O)[C@H](O)[C@H]4O)C(C)(C)[C@@H]3CC[C@]12C` [ginsenoside Rd]: “lower” and “suppressed”.

B1: IFN-β: mouse IFN-β (1,000 units/ml), positive control (protein, UniProt P01575 22-182, looked up)
Interferon beta: INYKQLQLQERTNIRKCQELLEQLNGKINLTYRADFKIPMEMTEKMQKSYTAFAIQEMLQNVFLVFRNNFSSTGWNETIVVRLLDELHQQTVFLKTVLEEKQEERLTWEMSSTALHLKSYYWRVQRYLKLMKYNSYAWMVVRAEIFRNFLIIRRLTRNFQN
For B1, the “GFP (influenza virus infection rate)” value in test [3] is recorded as 1.45.
